Assays:
[1] = target: T1, Drosophila melanogaster dNK (Drosophila melanogaster, UniProt Q9XZT6); test: Phosphorylation assay (spectrophotometric coupled-enzyme), D. melanogaster dNK; type: biochemical; conditions: substrate at 100 μM, 37° C., 1 mM ATP, triplicate
T1 sequence (Q9XZT6 1-250): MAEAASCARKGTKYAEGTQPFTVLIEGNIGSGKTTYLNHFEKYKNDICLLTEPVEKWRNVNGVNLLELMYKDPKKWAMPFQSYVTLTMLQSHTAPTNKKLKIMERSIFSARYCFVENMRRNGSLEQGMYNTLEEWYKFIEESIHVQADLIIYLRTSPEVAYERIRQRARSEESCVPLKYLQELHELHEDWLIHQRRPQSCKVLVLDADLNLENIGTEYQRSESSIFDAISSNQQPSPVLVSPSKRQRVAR
Procedure: Compounds of the invention were also tested in a phosphorylation assay using three deoxynucleoside kinases. […] The compounds were at substrate concentration of 100 μM.
Kinetic assay. […] Briefly, the individual nucleosides at 100 μM were prepared in reaction buffer containing 50 mM Tris-HCl (pH 7.5), 0.1 M KCl, 5 mM MgCl2, 1 mM DTT, 1 mM ATP, 0.21 mM phosphoenolpyruvate, 0.18 mM NADH, and 2 units/ml pyruvate kinase and 2 units/ml lactate dehydrogenase (Roche Biochemicals, Indianapolis, Ind.). Assays were performed at 37° C. by measuring the absorbance change at 340 nm. The enzyme amount was adjusted to limit NADH turnover to 10% over the time of the experiment. All experiments were performed in triplicate.

[2] = target: Thermotoga maritima thymidine kinase (Thermotoga maritima, UniProt Q9WYN2); test: Phosphorylation assay (spectrophotometric coupled-enzyme), T. maritima TK; type: biochemical; conditions: substrate at 100 μM, 37° C., 1 mM ATP, triplicate
Procedure: Compounds of the invention were also tested in a phosphorylation assay using three deoxynucleoside kinases. The kinases include human dCK, which is responsible for the activation of numerous nucleoside analog prodrugs; Drosophila melanogaster dNK, which is the fastest known kinases with the broadest substrate specificity profile; and Thermotoga maritima thymidine kinase, which is a good surrogate for human thymidine kinase 1, a member of the distinct type II kinase subfamily. The compounds were at substrate concentration of 100 μM.
Kinetic assay. Substrate phosphorylation was determined using a spectrophotometric coupled-enzyme assay (Munch-Petersen et al. (2000) J. Biol. Chem. vol. 275p. 66′73-66′79; Schelling et al. (2001) Anal. Biochem vol. 295 p. 82-8′7). Briefly, the individual nucleosides at 100 μM were prepared in reaction buffer containing 50 mM Tris-HCl (pH 7.5), 0.1 M KCl, 5 mM MgCl2, 1 mM DTT, 1 mM ATP, 0.21 mM phosphoenolpyruvate, 0.18 mM NADH, and 2 units/ml pyruvate kinase and 2 units/ml lactate dehydrogenase (Roche Biochemicals, Indianapolis, Ind.). Assays were performed at 37° C. by measuring the absorbance change at 340 nm. The enzyme amount was adjusted to limit NADH turnover to 10% over the time of the experiment. All experiments were performed in triplicate.

[3] = in vitro; conditions: human, MOLT-4 cells
[4] = in vitro; conditions: human, NCI H2052 cells
[5] = system: ZR-75-1; test: MTT cell proliferation assay, ZR-75-1; type: cell-based; conditions: Homo sapiens, ZR-75-1, 72 h, concentration reducing cell growth by 50% after 72 hours, 1% DMSO
Procedure: (§1) The antitumor activities of the compounds of the invention were evaluated by a cellular proliferation assay. The MTT [3-(4,5-dimethylthiazol-2-yl)-2,5-diphenyltetrazolium bromide] cell proliferation assay, first described by Mosmann (Mosmann T., “Rapid colorimetric assay for cellular growth and survival: application to proliferation and cytotoxicity assays,” J. Immunol. Methods 1983 Dec. 16; 65(1-2):55-63, and incorporated by reference in its entirety) is based on the ability of active mitochondrial reductase enzymes from viable cells to cleave the tetrazolium rings of the pale yellow MTT. The cleavage reaction form a purple formazan crystals which is largely impermeable to cell membranes resulting in its accumulation within healthy cells. Solubilisation of the cells by addition of a detergent liberates and solubilizes the formazan crystals. The number of surviving cells is directly proportional to the level of the formazan product created. The color can then be quantified spectrophotometrically. The production of purple formazan in cells treated with a compound is measured relative to the production in control cells, and dose-response curves can be generated. This assay measures the cell proliferation rate and conversely, when metabolic events lead to apoptosis or necrosis, the reduction in cell viability, thus also allowing the evaluation of the cytotoxicity of the analogues synthesized in the laboratory.
(§2) For Tables 3 and 4, the assays were performed with 1% DMSO. The abbreviation “n.d.” means “not determined.” The values EC50, CC50, and SI have the following definitions.
(§3) Cell growth equals total cell count without any inhibitor after 72 hours minus initial cell count. Total cell counts after 72 hrs of growth range from 230 to 346% of initial cell counts depending on the cell line.
(§4) Total cell counts after 24 hrs of growth range from 103 to 109% of initial cell counts depending on the cell line.
(§5) SI: Selectivity Index is the ratio CC50/EC50.

[6] = MTT cell proliferation assay, ZR-75-1; type: cell-based; conditions: human, ZR-75-1 cells, concentration causing 50% cell death of initial cell count over 24 hours, 1% DMSO
Procedure: as §1, §2, §3, §4, §5

[7] = system: PFSK-1; test: MTT cell proliferation assay, PFSK-1; type: cell-based; conditions: Homo sapiens, PFSK-1, 72 h, concentration reducing cell growth by 50% after 72 hours, 1% DMSO
Procedure: (§6) The antitumor activities of the compounds of the invention were evaluated by a cellular proliferation assay. […] The cleavage reaction form a purple formazan crystals which is largely impermeable to cell membranes resulting in its accumulation within healthy cells. Solubilisation of the cells by addition of a detergent liberates and solubilizes the formazan crystals. The number of surviving cells is directly proportional to the level of the formazan product created. The color can then be quantified spectrophotometrically. The production of purple formazan in cells treated with a compound is measured relative to the production in control cells, and dose-response curves can be generated. This assay measures the cell proliferation rate and conversely, when metabolic events lead to apoptosis or necrosis, the reduction in cell viability, thus also allowing the evaluation of the cytotoxicity of the analogues synthesized in the laboratory.
as §2
(§7) Cell growth equals total cell count without any inhibitor after 72 hours minus initial cell count.
as §5

[8] = MTT cell proliferation assay, PFSK-1; type: cell-based; conditions: human, PFSK-1 cells, concentration causing 50% cell death of initial cell count over 24 hours, 1% DMSO
Procedure: as §6, §2, §7, §5

[9] = in vitro; conditions: human, NCI H1395 cells

Chain of Thermotoga maritima thymidine kinase (Q9WYN2 whole entry): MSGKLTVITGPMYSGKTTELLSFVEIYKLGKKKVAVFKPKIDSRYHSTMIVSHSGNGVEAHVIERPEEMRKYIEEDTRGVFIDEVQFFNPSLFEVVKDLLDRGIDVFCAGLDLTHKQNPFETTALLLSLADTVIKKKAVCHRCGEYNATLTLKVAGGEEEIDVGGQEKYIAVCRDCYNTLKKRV

Compound	D. melanogaster dNK substrate phosphorylation ([1]; listed as LCB-1022-1)	T. maritima TK substrate phosphorylation ([2]; listed as LCB-1022-1)	CC50 at 24 h [3]	CC50 at 24 h [4]	D. melanogaster dNK substrate phosphorylation [1]	T. maritima TK substrate phosphorylation [2]	EC50 [5]	CC50 at 24 h [6]	EC50 [7]	CC50 at 24 h [8]	CC50 at 24 h [9]
COC(=O)C1(C)C[C@H](n2cc(F)c(=O)[nH]c2=O)O[C@@H]1CO (mixture of isomers) [LCB-1022, 5-(5-Fluoro-2,4-dioxo-3,4-dihydro-2H-pyrimidin-1-yl)-2-hydroxymethyl-3-methyl-tetrahydro-furan-3-carboxylic acid methyl ester]	1.88 10^6 μmol/min mg	3 10^−3 μmol/min mg	> 500 µM								
Cc1cc(=O)[nH]c(=O)n1[C@H]1CC2(C)C(=O)OC[C@H]2O1 (single isomer, unassigned) [LCB-1020, 6-Methyl-1-(3a-methyl-4-oxo-hexahydro-furo[3,4-b]furan-2-yl)-1H-pyrimidine-2,4-dione]			> 500 µM	> 500 µM	<0.1 10^6 μmol/min mg	<1 10^−3 μmol/min mg	> 500 µM	> 500 µM	> 500 µM	> 500 µM	> 500 µM
CCOC(=O)[C@@H]1O[C@H](n2cc(F)c(=O)[nH]c2=O)CC1(C)C(=O)OCC (stereo in doubt) [LCB-1024, (2R,5S)-diethyl5-(5-fluoro-2,4-dioxo-3,4-dihydropyrimidin-1(2H)-yl)-3-methyltetrahydrofuran-2,3-dicarboxylate]			> 460 µM	> 460 µM	<0.1 10^6 μmol/min mg	4.2 10^−3 μmol/min mg	> 460 µM	> 460 µM	190 µM	> 460 µM	> 460 µM
CCOC(=O)[C@@H]1O[C@H](n2cc(C)c(=O)[nH]c2=O)CC1(C)C(=O)OCC (stereo partly drawn) [LCB-1019, (2R,5S)-diethyl 3-methyl-5-(5-methyl-2,4-dioxo-3,4-dihydropyrimidin-1(2H)-yl)tetrahydrofuran-2,3-dicarboxylate]			> 460 µM	> 460 µM	<0.1 10^6 μmol/min mg	6.1 10^−3 μmol/min mg	> 460 µM	> 460 µM	> 460 µM	> 460 µM	> 460 µM
CCOC(=O)[C@@H]1O[C@H](n2ccc(=O)[nH]c2=O)CC1(C)C(=O)OCC (stereo partly drawn) [LCB-1025, (2R,5S)-diethyl 5-(2,4-dioxo-3,4-dihydropyrimidin-1(2H)-yl)-3-methyltetrahydrofuran-2,3-dicarboxylate]			> 460 µM	> 460 µM	<0.1 10^6 μmol/min mg	<1 10^−3 μmol/min mg	> 460 µM	> 460 µM	> 460 µM	> 460 µM	> 460 µM

Source: patent publication US8361988B2, “Nucleoside and nucleotide analogues with quaternary carbon centers and methods of use” (Institut de Recherches Cliniques de Montreal, priority 2007, dated 2013)
